One data set has as its system HIV-1 in CEM cells. Description: CEM cell assay, HIV inhibition in acutely infected cells (MTT). In kind it is cell-based. The following applies: Human immunodeficiency virus 1, CCRF-CEM, 168 h; HIV-1 infected CEM cells, 7 days. How it is done: The effectiveness of selected compounds of the present invention were determined in the above-described enzyme assay and in a CEM cell assay. The HIV inhibition assay method of acutely infected cells is an automated tetrazolium based calorimetric assay essentially that reported by Pauwles et al, J. Virol. Methods 20, 309-321 (1988). Assays were performed in 96-well tissue culture plates. CEM cells, a CD4+ cell line, were grown in RPMI-1640 medium (Gibco) supplemented with a 10% fetal calf serum and were then treated with polybrene (2 μg/ml). An 80 μl volume of medium containing 1×10^4 cells was dispensed into each well of the tissue culture plate. To each well was added a 100 μl volume of test compound dissolved in tissue culture medium (or medium without test compound as a control) to achieve the desired final concentration and the cells were incubated at 37° C. for 1 hour. A frozen culture of HIV-1 was diluted in culture medium to a concentration of […] (TCID50=the dose of virus that infects 50% of cells in tissue culture), and a 20 μL volume of the virus sample (containing 1000 TCID50 of virus) was added to wells containing test compound and to wells containing only medium (infected control cells). Several wells received culture medium without virus (uninfected control cells). Likewise, the intrinsic toxicity of the test compound was determined by adding medium without virus to several wells containing test compound. In summary, the tissue culture plates contained the following experiments: In experiments 2 and 4 the final concentrations of test compounds were 1, 10, 100 and 500 μg/ml. Either azidothymidine (AZT) or dideoxyinosine (ddI) was included as a positive drug control. […] DMSO was added to all control wells at an appropriate concentration. Following the addition of virus, cells were incubated at 37° C. in a humidified, 5% CO2 atmosphere for 7 days. Test compounds could be added on days 0, 2 and 5 if desired. On day 7, post-infection, the cells in each well were resuspended and a 100 μl sample of each cell suspension was removed for assay. A 20 μL volume of a 5 mg/ml solution of 3-(4,5-dimethylthiazol-2-yl)-2,5-diphenyltetrazolium bromide (MTT) was added to each 100 μL cell suspension, and the cells were incubated for 4 hours at […] in a 5% CO2 environment. […] To each sample was added 100 μl of 10% sodium dodecylsulfate in 0.01N HCl to lyse the cells, and samples were incubated overnight. The absorbance at 590 nm was determined for each sample using a Molecular Devices microplate reader. Absorbance values for each set of wells is compared to assess viral control infection, uninfected control cell response as well as test compound by cytotoxicity and antiviral efficacy.

The nature of data set [1]: Identification of metabolite in blood of male rats after oral administration (LC-MS). The format is in vivo, rat. As to conditions: male rats (n=5), in 0.5% methylcellulose and 0.1% polysorbate 80, blood at 0.25-4 hours. The method, then:
Butaneamide, 2-[(N,N-dimethylaminoacetyl)amino]-N-[3-[[[(1,1-dimethylethyl)amino]carbonyl](3-methylbutyl)amino]-2-hydroxy-1-(phenylmethyl)propyl]-3,3-dimethyl-, [1S-[1R*(R*), 2S*]]-, as prepared in Example 1 herein, is administered to male rats (n=5) orally in water containing 0.5% methylcellulose and 0.1% polysorbate 80 in a total volume of 5 to 7 mL per kilogram. Blood samples are collected at 0.25, 0.50, 1, 2 and 4 hours. The samples for each time-point are pooled and extracted onto a 100 mg C18 solid phase extraction column (SPEC) after prior treatment with methanol to denature plasma proteins. The extract is purified by washing the SPEC with water and collected after the addition of 1% formic acid in methanol to the SPEC. Concentration of the extract is achieved by evaporation and resolubilization in a small volume of water:acetonitrile (3:1, v/v). The resolubilized extract is filtered through a 0.2μ filter and injected onto a liquid chromatograph coupled to a mass spectrometer, using a VG Trio 2 Mass Spectrometer, by means of a thermospray interface. The chromatographic separation is produced by use of a 10 cm (2×5 cm) YMC Basic column with a mobile phase of water:acetonitrile:pyridine:formic acid (545:440:10:5, by volume).

A further data set deals with HIV protease (Human immunodeficiency virus type 1 group M subtype B, UniProt P04585). As to the kind of experiment: HIV protease enzyme assay (fluorescent substrate 2-aminobenzoyl-Ile-Nle-Phe(p-NO2)-Gln-ArgNH2). The format is biochemical. The following applies: concentration at which the inhibitor reduces enzyme activity by 50%; enzyme about 12.3 nanomolar, substrate about 80 μM, pH 6.4. The text has this: The compounds of the present invention are advantageously effective HIV protease inhibitors. Utilizing an enzyme assay as described below, the compounds set forth in the examples herein disclosed inhibited the HIV enzyme. The preferred compounds of the present invention and their calculated IC50 (the concentration at which the inhibitor compound reduces enzyme activity by 50%) values are shown in Table 2.
The enzyme method is as follows. The substrate is 2-aminobenzoyl-Ile-Nle-Phe(p-NO2)-Gln-ArgNH2. The positive control is MVT-101 (Miller, M. et al, Science, 246, 1149 (1989)). The assay buffer is 20 mM sodium phosphate, pH 6.4, 20% glycerol, 1 mM EDTA, 1 mM DTT and 0.1% CHAPS. The substrate is dissolved in DMSO, then diluted 10 fold in assay buffer. Final substrate concentration in the assay is about 80 μM. HIV protease is diluted in the assay buffer to a final enzyme concentration of about 12.3 nanomolar, based on a molecular weight of 10,780.
The final concentration of DMSO is about 14% and the final concentration of glycerol is about 18%. The test compound is dissolved in DMSO and diluted in DMSO to ten times (10×) the test concentration. Ten microliters (10 μL) of the enzyme preparation is added, the materials mixed and then the mixture is incubated at ambient temperature for 15 minutes. The enzyme reaction is initiated by the addition of 40 μL of substrate. The increase in fluorescence is monitored at 4 time points (0, 8, 16 and 24 minutes) at ambient temperature. Each assay is carried out in duplicate wells.

Another data set has as its system CEM cells. In kind it is cell-based. On the set-up: unit not given beside the values. The method, then:
The HIV inhibition assay method of acutely infected cells is an automated tetrazolium based calorimetric assay essentially that reported by Pauwles et al, J. Virol. Methods 20, 309-321 (1988). Assays were performed in 96-well tissue culture plates. CEM cells, a CD4+ cell line, were grown in RPMI-1640 medium (Gibco) supplemented with a 10% fetal calf serum and were then treated with polybrene (2 μg/ml). An 80 μl volume of medium containing 1×10^4 cells was dispensed into each well of the tissue culture plate. To each well was added a 100 μl volume of test compound dissolved in tissue culture medium (or medium without test compound as a control) to achieve the desired final concentration and the cells were incubated at 37° C. for 1 hour. A frozen culture of HIV-1 was diluted in culture medium to a concentration of 5×104 TCID50 per ml (TCID50=the dose of virus that infects 50% of cells in tissue culture), and a 20 μL volume of the virus sample (containing 1000 TCID50 of virus) was added to wells containing test compound and to wells containing only medium (infected control cells). Several wells received culture medium without virus (uninfected control cells). Likewise, the intrinsic toxicity of the test compound was determined by adding medium without virus to several wells containing test compound. In summary, the tissue culture plates contained the following experiments: In experiments 2 and 4 the final concentrations of test compounds were 1, 10, 100 and 500 μg/ml. Either azidothymidine (AZT) or dideoxyinosine (ddI) was included as a positive drug control. […] DMSO was added to all control wells at an appropriate concentration. Following the addition of virus, cells were incubated at 37° C. in a humidified, 5% CO2 atmosphere for 7 days. Test compounds could be added on days 0, 2 and 5 if desired. […] The absorbance at 590 nm was determined for each sample using a Molecular Devices microplate reader. Absorbance values for each set of wells is compared to assess viral control infection, uninfected control cell response as well as test compound by cytotoxicity and antiviral efficacy.

The term EC50 denotes the concentration at which the effect is half-maximal. What is called IC50 is the midpoint of a concentration-inhibition curve.

Structures can show the parent of a compound that is named as a salt.

In the data set with HIV-1 in CEM cells, `CC(C)CCN(C[C@@H](O)[C@H](Cc1ccccc1)NC(=O)[C@@H](NC(=O)CN(C)C)C(C)(C)C)C(=O)NC(C)(C)C` [Example 1, Butaneamide, 2-[(N,N-dimethylaminoacetyl)amino]-N-[3-[[[(1,1-dimethylethyl)amino]carbonyl](3-methylbutyl)amino]-2-hydroxy-1-(phenylmethyl)propyl]-3,3-dimethyl-,[1S-[1R*(R*), 2S*]]-] registered an EC50 of 58 nM. The “metabolite found in blood extract compared with synthesized metabolite standard” value in data set [1] was “corresponding spectra and chromatogram from a standard of the synthesized metabolite can be favorably compared”. The same compound came in with an IC50 against HIV protease of 10 nM. For the same compound, the TD50 with CEM cells was 45,000.

On to `CNCC(=O)N[C@H](C(=O)N[C@@H](Cc1ccccc1)[C@H](O)CN(CCC(C)C)C(=O)NC(C)(C)C)C(C)(C)C` [Example 2, (2R, 3S)-3(N-methylaminoacetyl-L-tert-butylglycinyl) amino-2-hydroxy-4-phenyl-1-[N-(3-methylbutyl)-N-[(1,1-dimethylethyl)amino]carbonyl]aminobutane], for which, in the data set with HIV-1 in CEM cells, a half-maximal effect (EC50) was put at 22 nM. For the same compound, half-maximal inhibition against HIV protease (IC50) was put at 6 nM. Besides, the TD50 in the data set with CEM cells is listed as 45,000.

Regarding `CC[C@H](C)[C@H](NC(=O)CN(C)C)C(=O)N[C@@H](Cc1ccccc1)[C@H](O)CN(CCC(C)C)C(=O)NC(C)(C)C` [Example 3, (2R,3S)-3-(N,N-dimethylaminoacetyl-L-isoleucinyl)amido-1-[N-isoamyl-N-(tert-butylcarbamoyl)]amino-4-phenyl-2-butanol], the EC50 in the data set on HIV-1 in CEM cells worked out at 66 nM. On HIV protease, this compound displayed an IC50 of 14 nM.

Consider `CC[C@H](C)[C@H](NC(=O)CNC)C(=O)N[C@@H](Cc1ccccc1)[C@H](O)CN(CCC(C)C)C(=O)NC(C)(C)C` [Example 4, (2R,3S)-3-(N-methylaminoacetyl-L-isoleucinyl) amido-1-[N-isoamyl-N-(tert-butylcarbamoyl)]amino-4-phenyl-2-butanol], for which it took 91 nM to reach a half-maximal effect in the data set on HIV-1 in CEM cells (EC50). On HIV protease, this compound displayed an IC50 of 13 nM. In the data set on CEM cells, the TD50 was 55,000.

Turning to `CC(C)CCN(C[C@@H](O)[C@H](Cc1ccccc1)NC(=O)[C@@H](NC(=O)[C@H](C)N(C)C(=O)OCc1ccccc1)C(C)(C)C)C(=O)NC(C)(C)C` [Example 13, (2R, 3S)-3-(N-benzyloxycarbonyl-N-methyl-L-alaninyl-L-tert-butylglycinyl)amino-1-[N-isoamyl-N-(tert-butylcarbamoyl)]amino-4-phenyl-2-butanol], the EC50 with HIV-1 in CEM cells amounted to 0.034 µg/mL. Further, it took 14 nM to reach half-maximal inhibition against HIV protease (IC50).

As for `CN[C@@H](C)C(=O)N[C@H](C(=O)N[C@@H](Cc1ccccc1)[C@H](O)CN(CCC(C)C)C(=O)NC(C)(C)C)C(C)(C)C` [Example 14, (2R, 3S)-3-(N-methyl-L-alaninyl-L-tert-butylglycinyl)amino-1-[N-isoamyl-N-(tert-butylcarbamoyl)]amino-4-phenyl-2-butanol], in the data set on HIV-1 in CEM cells, a half-maximal response (EC50) required 0.096 µg/mL. This compound also came in with an IC50 on HIV protease of 8 nM.

`CN[C@H](C)C(=O)N[C@H](C(=O)N[C@@H](Cc1ccccc1)[C@H](O)CN(CCC(C)C)C(=O)NC(C)(C)C)C(C)(C)C` [Example 16, (2R, 3S)-3-(N-methyl-D-alaninyl-L-tert-butylglycinyl)amino-1-[N-isoamyl-N-(tert-butylcarbamoyl)]amino-4-phenyl-2-butanol] showed a concentration giving a half-maximal response (EC50) in the data set with HIV-1 in CEM cells of 0.059 µg/mL. The IC50 against HIV protease turned out to be 18 nM.

Compound `CC(C)CCN(C[C@@H](O)[C@H](Cc1ccccc1)NC(=O)[C@@H](NC(=O)CN)C(C)(C)C)C(=O)NC(C)(C)C` [Example 18, (2R, 3S)-3-(glycinyl-L-tert-butylglycinyl)amino-1-[N-isoamyl-N-(tert-butylcarbamoyl)]amino-4-phenyl-2-butanol Hydrochloride Salt] showed an EC50 in the data set with HIV-1 in CEM cells of 0.038 µg/mL. This compound registered a half-inhibitory concentration (IC50) against HIV protease of 10 nM.

For the origin of these results see patent publication US5750648A, “Retroviral protease inhibitors and combinations thereof” (G.D. Searle & Co., priority 1994, dated 1998).
